Data published in patent publication US6225321A (priority 1997, dated 2001).
Several values for one entry are separate records, joined by “and”; a condition that tells them apart may be missing. Identical values can stand only once. Counter-ions that a name gives are not always drawn.

Legend:
human = conditions: Shafer et al. 1991; cited from earlier work
[1] = cited from earlier work
Sprague Dawley rats = assay: Analgesic effect, cold ethanol bath tail flick test, intramuscular, rats; assay type: in vivo, rat; conditions: FIG. 6, rats, 25 micromole/kg intramuscular; for analgesic duration of Nalbuphine free base compared with the preparation of this ester: the shorter one is Nalbuphine free base
Experimental: Sprague Dawley rats(175 to 225 g) were used. Each group consisted of 6 rats and each rats was injected once intramuscularly on the rear leg. […]
The dose for each rat was 25 micromole per kg, intramuscularly.
In the experiment, a circulating cold ethanol bath with a temperature maintained at -20° C. was set up. After dosing, the rat tail(1/3 from the tip) was immersed in the bath. The latency for the rat to flick its tail from the bath was measured to be the nociceptive threshold. The effect of various opium alkaloid preparations can be determined with this test.
The nociceptive effect can be calculated as follows: [formula]
35, 25, 15 minutes before dosing, Male Sprague Dawley rat(175-225 g) was tested to measure the basic response latency. The time to top the experiment was set at 40 seconds to prevent the tail from cold sore. No cold sore were found in 40 sec. Five minutes after the drug was given to the rat, the flick test was performed every 10 minutes or more. […]
(c) Dinalbuphine sebacoyl ester, dose was 7.8125 μ/kg, 31.25 μM/kg, 125 μM/kg.
(d) 50 mg/ml dinalbuphine sebacoyl ester parenteral dosage forms, dinalbuphine sebacoyl ester was prepared in sesame oil.

[2] = between 17 and 28 hours; p<0.05
guinea pigs = assay: Analgesic effect, intramuscular, guinea pigs; assay type: in vivo, guinea pig; conditions: hydrochloride
Experimental: Six male Sprague Dawley rats (175 to 225 g), and six male guinea pigs (200 to 250 g) were used.
Dose for guinea pig was 500 μ/kg, 250 μM/kg.

[3] = comparison value for Nalbuphine hydrochloride, source not stated; cited from earlier work

Oc1ccc2c(c1)[C@@]13CCCC[C@@]1(O)[C@@H](C2)N(CC1CCC1)CC3 [Butorphanol]
dose needed to elicit the same analgesic effect (human): 2 mg

CCCCCCCCCC(=O)OC1(c2ccc(Cl)cc2)CCN(CCCC(=O)c2ccc(F)cc2)CC1 [Haloperidol decanoate]
dosing frequency to which effect was extended ([1]; intramuscular, Gelders 1986): 1 to 2 times a month

CN1CC[C@]23c4c5ccc(O)c4O[C@H]2[C@@H](O)C=C[C@H]3[C@H]1C5 [Morphine]
dose needed to elicit the same analgesic effect (human): 10 mg

O=C(Oc1ccc2c3c1O[C@H]1[C@@H](O)CC[C@@]4(O)[C@@H](C2)N(CC2CCC2)CC[C@]314)c1ccccc1 [Nalbuphine benzoate]
analgesic duration of Nalbuphine free base compared with the preparation of this ester (Sprague Dawley rats): significantly shorter

CCCCCCCCCC(=O)Oc1ccc2c3c1O[C@H]1[C@@H](O)CC[C@@]4(O)[C@@H](C2)N(CC2CCC2)CC[C@]314 [Nalbuphine decanoate]
analgesic duration of Nalbuphine free base compared with the preparation of this ester (Sprague Dawley rats): significantly shorter

CCCCCCC(=O)Oc1ccc2c3c1O[C@H]1[C@@H](O)CC[C@@]4(O)[C@@H](C2)N(CC2CCC2)CC[C@]314 [Nalbuphine enanthate]
analgesic duration of Nalbuphine free base compared with the preparation of this ester (Sprague Dawley rats): significantly shorter

Oc1ccc2c3c1O[C@H]1[C@@H](O)CC[C@@]4(O)[C@@H](C2)N(CC2CCC2)CC[C@]314 [Nalbuphine free base, reference compound]
analgesic duration compared with preparations of Nalbuphine monomer ester (Sprague Dawley rats): significantly shorter
amount of released Nalbuphine free base [2]: less in the preparation with sesame oil than with peanut oil ester and the control

Oc1ccc2c3c1O[C@H]1[C@@H](O)CC[C@@]4(O)[C@@H](C2)N(CC2CCC2)CC[C@]314 [Nalbuphine hydrochloride]
dose at which significant analgesic effect was found (guinea pigs): 500 µM/kg and 250 µM/kg
half life for excretion [3]: about 1 hour

CC(C)(C)C(=O)Oc1ccc2c3c1O[C@H]1[C@@H](O)CC[C@@]4(O)[C@@H](C2)N(CC2CCC2)CC[C@]314 [Nalbuphine pivalate]
analgesic duration of Nalbuphine free base compared with the preparation of this ester (Sprague Dawley rats): significantly shorter

CCC(=O)Oc1ccc2c3c1O[C@H]1[C@@H](O)CC[C@@]4(O)[C@@H](C2)N(CC2CCC2)CC[C@]314 [Nalbuphine propionate]
analgesic duration of Nalbuphine free base compared with the preparation of this ester (Sprague Dawley rats): significantly shorter

C#C[C@]1(OC(=O)CCCCCC)CC[C@H]2[C@@H]3CCC4=CC(=O)CC[C@@H]4[C@H]3CC[C@@]21C [Northisterone enanthate]
dosing interval can be set longer to ([1]; Joshi et al. 1989): two months

C[C@]12CC[C@H]3[C@@H](CCC4=CC(=O)CC[C@@]43C)[C@@H]1CC[C@@H]2O [Testosterone]
drug release ([1]; suspension): released quickly
